Assay results as given in patent US6030969A, “5,6,7-trisubstituted-4-aminopyrido[2,3-D] pyrimidine compounds” (Abbott Laboratories, priority 1998, dated 2000).
Structures can show the parent of a compound that is named as a salt.

Legend:
adenosine kinase = adenosine kinase (Homo sapiens, UniProt P55263); assay: Inhibition of adenosine kinase in vitro; type: biochemical; conditions: Table 1, read-out: IC50, Inhibition of Adenosine Kinase by Representative Compounds of the Invention
Source text: The adenosine kinase to be inhibited can be located in vitro, in situ or in vivo. Where the adenosine kinase is located in vitro, adenosine kinase is contacted with the inhibitor compound, typically by adding the compound to an aqueous solution containing the enzyme, radiolabeled substrate adenosine, magnesium chloride and ATP. The enzyme can exist in intact cells or in isolated subcellular fractions containing the enzyme. The enzyme is then maintained in the presence of the inhibitor for a period of time and under suitable physiological conditions. Means for determining maintenance times are well known in the art and depend inter alia on the concentrations of enzyme and the physiological conditions. Suitable physiological conditions are those necessary to maintain adenosine kinase viability and include temperature, acidity, tonicity and the like. Inhibition of adenosine kinase can be performed, by example, according to standard procedures well known in the art (Yamada, et al., Comp. Biochem. Physiol. 1982, 71B: 367-372). […] In vitro adenosine kinase activity can be measured using any of the standard procedures well known in the art. By way of example, cells containing adenosine kinase, such as IMR-32 human neuroblastoma cells, are cultured in the presence and absence of an inhibitor. Inhibition is measured as the ability to inhibit phosphorylation of endogenous or externally applied ^14 C-adenosine by these cells. The cells can be intact or broken. The specificity of adenosine kinase inhibitory activity is determined by studying the effects of inhibitors on adenosine A1 and A2α receptor binding, adenosine deaminase activity and adenosine transport. Numerous inhibitor compounds of the present invention were tested in vitro and found to inhibit adenosine kinase activity.

[1] = tested on: male CF1 mice (hot plate analgesia); assay: Mouse hot plate assay (hot plate test of analgesia); type: in vivo; conditions: 30 μmol/kg i.p., thirty minutes after pretreatment, 55° C. hot plate; vehicle alone 72.76±10.51 seconds
Procedure: The compounds of the invention were tested in vivo in the hot plate test of analgesia in mammals such as mice. […] Mouse Hot Plate Assay […] At the end of the pretreatment period, the mice are placed in an Omnitech Electronics Automated 16 Animal Hot Plate Analgesia Monitor (Columbus, Ohio; Model […]) in individual, 9.8×7.2×15.3 cm (l×w×h) plastic enclosures on top of a copper plate warmed to 55° C. […] sensors located near the top of each enclosure record beam crossings that occur as the mice jump off of the heated surface. Latency times for each jump are automatically recorded, and latency to both the first and tenth jumps are used for data analysis.

Sequence of adenosine kinase (P55263 whole entry): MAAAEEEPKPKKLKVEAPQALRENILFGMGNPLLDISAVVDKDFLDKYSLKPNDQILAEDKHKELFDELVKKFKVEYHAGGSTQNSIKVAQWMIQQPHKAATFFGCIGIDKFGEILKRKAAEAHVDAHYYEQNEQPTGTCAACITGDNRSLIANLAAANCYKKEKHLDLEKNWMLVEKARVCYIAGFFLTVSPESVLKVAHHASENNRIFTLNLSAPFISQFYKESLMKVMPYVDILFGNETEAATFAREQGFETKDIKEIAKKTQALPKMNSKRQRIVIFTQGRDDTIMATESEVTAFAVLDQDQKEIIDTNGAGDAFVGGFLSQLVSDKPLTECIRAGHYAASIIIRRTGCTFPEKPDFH

| Structure (SMILES) | IC50 (adenosine kinase) | latency to 10th jump [1] |
| --- | --- | --- |
| CCCCCc1c(-c2ccc(N(C)C)cc2)nc2ncnc(N)c2c1-c1ccc(F)c(Br)c1 [Example 1, 4-amino-5-(3-bromo-4-fluorophenyl)-6-pentyl-7-(4-(dimethylamino)phenyl)pyrido[2,3-d]pyrimidine] | 80 nM | – |
| CCc1c(-c2cccs2)nc2ncnc(N)c2c1-c1cccc(Br)c1 [Example 4, 4-amino-5-(3-bromophenyl)-6-ethyl-7-(thiophen-2-yl)pyrido[2,3-d]pyrimidine] | 3 nM | – |
| CCOC(=O)Cc1c(-c2cccs2)nc2ncnc(N)c2c1-c1cccc(Br)c1 [Example 8, 4-amino-5-(3-bromophenyl)-6-ethoxycarbonylmethyl-7-(thiophen-2-yl)pyrido[2,3-d]pyrimidine hydrochloride] | 3 nM | – |
| COc1cccc(Cc2c(-c3cccs3)nc3ncnc(N)c3c2-c2cccc(Br)c2)c1 [Example 9, 4-amino-5-(3-bromophenyl)-6-(3-methoxyphenylmethyl)-7-(thiophen-2-yl)pyrido[2,3-d]pyrimidine hydrochloride] | 23 nM | – |
| CC(C)c1ccc(-c2c(-c3ccc(N(C)C)cc3)nc3ncnc(N)c3c2-c2ccc(C(C)C)cc2)cc1 [Example 25, 4-amino-5,6-(bis-4-(2-propyl)phenyl)-7-(4-dimethylaminophenyl)pyrido[2.3-d]pyrimidine] | 4 nM | – |
| COCCN(C)c1ccc(-c2nc3ncnc(N)c3c(-c3ccccc3)c2-c2ccccc2)cc1 [Example 26, 4-amino-5-phenyl-6-phenyl-7-(4-(N-methyl-N-(2-methoxyethyl)amino)phenyl)pyrido[2,3-d]pyrimidine hydrochloride] | 5 nM | – |
| CN(C)c1ccc(-c2nc3ncnc(N)c3c(-c3ccccc3)c2-c2ccccc2)cc1.Cl.Cl [Example 27, 4-amino-5,6-diphenyl-7-(4-dimethylaminophenyl)pyrido [2,3-d]pyrimidine dihydrochloride] | 9 nM | 154.86 s |
| Nc1ncnc2nc(-c3ccc(N4CCOCC4)nc3)c(-c3ccc(F)cc3)c(-c3cccc(Br)c3)c12 [Example 39, 4-amino-5-(3-bromophenyl)-6-(4-fluorophenyl)-7-(6-morpholinyl-3-pyridinyl)pyrido[2,3-d]pyrimidine hydrochloride] | 5 nM | – |
| Nc1ncnc2nc(-c3ccc(N4CCOCC4)nc3)c(-c3ccccc3)c(-c3ccccc3)c12 [Example 40, 4-amino-5-phenyl-6-phenyl-7-(6-morpholinyl-3-pyridinyl)pyrido [2,3-d]pyrimidine hydrochloride] | 3 nM | – |

These reach a lower IC50 (adenosine kinase). Values come first.

| IC50 (adenosine kinase) | Structure (SMILES) | latency to 10th jump [1] |
| --- | --- | --- |
| 1 nM | COc1ccc(-c2c(-c3cccs3)nc3ncnc(N)c3c2-c2cccc(Br)c2)cc1OC [Example 6, 4-amino-5-(3-bromophenyl)-6-(3,4-dimethoxyphenyl)-7-(thiophen-2-yl)pyrido[2,3-d]pyrimidine] | – |
| 0.3 nM | COc1ccc(-c2c(-c3cccs3)nc3ncnc(N)c3c2-c2cc(Br)cs2)cc1OC [Example 11, 4-amino-5-(4-bromothiophen-2-y)-6-(3,4-dimethoxyphenyl)-7-(thiophen-2-yl)pyrido[2,3-d]pyrimidine hydrochloride] | – |
| 1 nM | COc1ccc(-c2c(-c3cccs3)nc3ncnc(N)c3c2-c2cccc(Cl)c2)cc1OC [Example 12, 4-amino-5-(3-chlorophenyl)-6-(3,4-dimethoxyphenyl)-7-(thiophen-2-yl)pyrido[2,3-d]pyrimidine hydrochloride] | – |
| 0.1 nM | COCCN(C)c1ccc(-c2nc3ncnc(N)c3c(-c3cc(Br)cs3)c2-c2ccc(OC)c(OC)c2)cc1.Cl [Example 19, 4-amino-5-(4-bromothiophen-2-yl)-6-(3,4-dimethoxyphenyl)-7-(4-(N-methyl-N-(2-methoxyethyl)amino)phenyl)pyrido [2,3-d]pyrimidine hydrochloride] | 142.13 s |
| 2 nM | Nc1ncnc2nc(-c3ccc(N4CCOCC4)nc3)c(-c3ccccc3)c(-c3cccc(Br)c3)c12 [Example 41, 4-amino-5-(3-bromophenyl)-6-phenyl-7-(6-morpholinyl-3-pyridinyl)pyrido [2,3-d]pyrimidine hydrochloride] | – |
